Measured values reported in article PMC8474115 (Journal of Medicinal Chemistry, 2021).
pIC50, pKi: −log10 of the molar value. Where a name gives a salt, the structure may show the parent alone. Read-outs that look alike come from different tables or passages of the source.

Assays:
ACE = target: T1, ACE (Oryctolagus cuniculus, UniProt P12822); experiment: Eurofins SafetyScreen panel; format: biochemical, rabbit
T1 construct: Eurofins

Adenosine A2A = target: T2, Adenosine A2A (Homo sapiens, UniProt P29274); experiment: Eurofins SafetyScreen panel; format: binding
T2 construct: Eurofins (contract screening, SafetyScreen panel) PP223

Angiotensin AT1 = target: T3, Angiotensin AT1 (Homo sapiens, UniProt P30556); experiment: Eurofins SafetyScreen panel; format: binding
T3 construct: Eurofins (contract screening, SafetyScreen panel) PP223

[1] = target: Ca Channel L-Type, Benzothiazepine (Rattus norvegicus, UniProt P22002); experiment: Eurofins SafetyScreen panel; format: binding
[2] = target: Ca Channel L-Type, Dihydropyridine (Rattus norvegicus, UniProt P22002); experiment: Eurofins SafetyScreen panel; format: binding
[3] = target: Ca Channel L-Type, Phenylalkylamine (Rattus norvegicus, UniProt P22002); experiment: Eurofins SafetyScreen panel; format: binding
Chemokine CCR1 = target: T4, Chemokine CCR1 (Homo sapiens, UniProt P32246); experiment: Eurofins SafetyScreen panel; format: binding
T4 construct: purchased Eurofins (Panlabs) SafetyScreen87 Panel

GABAB1A = target: T5, GABAB1A (Homo sapiens, UniProt Q9UBS5); experiment: Eurofins SafetyScreen panel; format: binding
T5 construct: purchased Eurofins (Panlabs) SafetyScreen87 Panel

[4] = target: T6, Glutamate Metabotropic, mGlu5 (Homo sapiens, UniProt P41594); experiment: Eurofins SafetyScreen panel; format: binding
T6 construct: purchased Eurofins (Panlabs) SafetyScreen87 Panel

Histamine H1 = target: T7, Histamine H1 (Homo sapiens, UniProt P35367); experiment: Eurofins SafetyScreen panel; format: binding
T7 construct: Eurofins (contract screening, SafetyScreen panel) PP223
T7 sequence (P35367 whole entry): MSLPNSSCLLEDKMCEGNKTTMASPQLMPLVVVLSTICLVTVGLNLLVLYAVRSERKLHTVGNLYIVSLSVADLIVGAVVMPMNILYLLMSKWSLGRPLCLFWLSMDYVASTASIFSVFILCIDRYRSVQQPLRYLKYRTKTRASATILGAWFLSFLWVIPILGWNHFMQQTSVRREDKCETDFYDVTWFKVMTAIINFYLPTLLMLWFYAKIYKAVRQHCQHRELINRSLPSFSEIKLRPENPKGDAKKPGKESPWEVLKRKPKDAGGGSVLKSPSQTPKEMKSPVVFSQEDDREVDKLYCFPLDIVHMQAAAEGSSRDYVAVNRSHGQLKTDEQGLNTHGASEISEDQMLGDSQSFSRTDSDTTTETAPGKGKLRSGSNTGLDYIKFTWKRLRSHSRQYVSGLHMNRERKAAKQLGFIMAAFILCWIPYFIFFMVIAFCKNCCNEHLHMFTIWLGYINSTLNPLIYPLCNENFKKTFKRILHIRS

Muscarinic M4 = target: T8, Muscarinic M4 (Homo sapiens, UniProt P08173); experiment: Eurofins SafetyScreen panel; format: binding
T8 construct: Eurofins (contract screening, SafetyScreen panel) PP223

Opiate κ (OP2, KOP) = target: T9, Opiate κ (OP2, KOP) (Homo sapiens, UniProt P41145); experiment: Eurofins SafetyScreen panel; format: binding
T9 construct: Eurofins (contract assay)
T9 sequence (P41145 whole entry): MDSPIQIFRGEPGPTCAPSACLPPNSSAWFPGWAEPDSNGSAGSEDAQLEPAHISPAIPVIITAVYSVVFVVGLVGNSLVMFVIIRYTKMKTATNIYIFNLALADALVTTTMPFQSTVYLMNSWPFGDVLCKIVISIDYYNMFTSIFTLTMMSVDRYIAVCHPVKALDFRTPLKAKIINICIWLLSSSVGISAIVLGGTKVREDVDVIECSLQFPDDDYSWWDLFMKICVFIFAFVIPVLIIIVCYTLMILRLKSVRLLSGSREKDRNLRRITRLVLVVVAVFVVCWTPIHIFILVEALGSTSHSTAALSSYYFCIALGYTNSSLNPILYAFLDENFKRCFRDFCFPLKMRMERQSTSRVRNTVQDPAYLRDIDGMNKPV

Opiate μ (OP3, MOP) = target: T10, Opiate μ (OP3, MOP) (Homo sapiens, UniProt P35372); experiment: Eurofins SafetyScreen panel; format: binding
T10 construct: Eurofins (contract assay)
T10 sequence (P35372 whole entry): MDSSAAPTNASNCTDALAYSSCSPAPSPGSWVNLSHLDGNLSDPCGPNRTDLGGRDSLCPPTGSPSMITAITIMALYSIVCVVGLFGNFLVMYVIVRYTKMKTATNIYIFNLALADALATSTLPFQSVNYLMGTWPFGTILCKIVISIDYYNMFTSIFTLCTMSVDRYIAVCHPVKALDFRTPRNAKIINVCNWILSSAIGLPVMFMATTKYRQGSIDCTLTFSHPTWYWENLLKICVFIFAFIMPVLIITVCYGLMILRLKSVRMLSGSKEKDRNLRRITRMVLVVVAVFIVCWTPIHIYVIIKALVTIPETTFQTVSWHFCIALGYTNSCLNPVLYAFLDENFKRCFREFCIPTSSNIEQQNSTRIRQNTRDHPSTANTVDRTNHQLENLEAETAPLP

Serotonin 5-HT1A = target: T11, Serotonin 5-HT1A (Homo sapiens, UniProt P08908); experiment: Eurofins SafetyScreen panel; format: binding
T11 construct: Eurofins (contract assay)
T11 sequence (P08908 1-422): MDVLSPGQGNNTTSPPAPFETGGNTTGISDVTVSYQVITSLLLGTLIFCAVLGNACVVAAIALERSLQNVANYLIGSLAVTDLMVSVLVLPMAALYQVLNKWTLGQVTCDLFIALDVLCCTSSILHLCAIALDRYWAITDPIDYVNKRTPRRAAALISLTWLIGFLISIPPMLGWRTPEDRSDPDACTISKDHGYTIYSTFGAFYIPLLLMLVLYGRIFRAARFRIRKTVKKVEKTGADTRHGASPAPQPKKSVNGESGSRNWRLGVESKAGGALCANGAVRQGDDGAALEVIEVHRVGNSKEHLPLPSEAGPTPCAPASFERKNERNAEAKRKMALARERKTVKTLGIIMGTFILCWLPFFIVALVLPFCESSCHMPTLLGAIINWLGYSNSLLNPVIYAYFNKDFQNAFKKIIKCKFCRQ

Serotonin 5-HT2A = target: T12, Serotonin 5-HT2A (Homo sapiens, UniProt P28223); experiment: Eurofins SafetyScreen panel; format: binding
T12 construct: Eurofins (contract assay)

Serotonin 5-HT5A = target: T13, Serotonin 5-HT5A (Homo sapiens, UniProt P47898); experiment: Eurofins SafetyScreen panel; format: binding
T13 construct: Eurofins (contract assay) 272100
T13 sequence (P47898 whole entry): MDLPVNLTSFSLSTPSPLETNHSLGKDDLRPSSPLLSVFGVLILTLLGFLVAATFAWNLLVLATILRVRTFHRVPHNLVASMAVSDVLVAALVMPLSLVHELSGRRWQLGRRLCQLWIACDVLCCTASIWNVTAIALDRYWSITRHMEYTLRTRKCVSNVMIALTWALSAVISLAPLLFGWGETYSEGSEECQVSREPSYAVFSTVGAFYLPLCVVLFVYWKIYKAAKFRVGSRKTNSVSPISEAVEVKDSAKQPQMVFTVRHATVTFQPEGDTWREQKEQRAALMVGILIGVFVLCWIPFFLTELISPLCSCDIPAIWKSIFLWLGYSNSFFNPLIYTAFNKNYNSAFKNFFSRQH

Sigma σ1 = target: T14, Sigma σ1 (Homo sapiens, UniProt Q99720); experiment: Eurofins SafetyScreen panel; format: binding
T14 construct: Eurofins (contract assay) 278110
T14 sequence (Q99720 whole entry): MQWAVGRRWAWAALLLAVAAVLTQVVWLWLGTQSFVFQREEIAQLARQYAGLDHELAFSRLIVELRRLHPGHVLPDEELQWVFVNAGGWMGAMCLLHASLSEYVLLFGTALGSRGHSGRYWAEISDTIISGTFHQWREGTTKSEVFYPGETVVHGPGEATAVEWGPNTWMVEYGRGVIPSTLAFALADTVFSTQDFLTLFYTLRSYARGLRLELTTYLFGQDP

[5] = target: T15, Norepinephrine Transporter (NET) (Homo sapiens, UniProt P23975); experiment: Eurofins SafetyScreen panel; format: binding
T15 construct: Eurofins (contract screening, SafetyScreen panel) PP223
T15 sequence (P23975 whole entry): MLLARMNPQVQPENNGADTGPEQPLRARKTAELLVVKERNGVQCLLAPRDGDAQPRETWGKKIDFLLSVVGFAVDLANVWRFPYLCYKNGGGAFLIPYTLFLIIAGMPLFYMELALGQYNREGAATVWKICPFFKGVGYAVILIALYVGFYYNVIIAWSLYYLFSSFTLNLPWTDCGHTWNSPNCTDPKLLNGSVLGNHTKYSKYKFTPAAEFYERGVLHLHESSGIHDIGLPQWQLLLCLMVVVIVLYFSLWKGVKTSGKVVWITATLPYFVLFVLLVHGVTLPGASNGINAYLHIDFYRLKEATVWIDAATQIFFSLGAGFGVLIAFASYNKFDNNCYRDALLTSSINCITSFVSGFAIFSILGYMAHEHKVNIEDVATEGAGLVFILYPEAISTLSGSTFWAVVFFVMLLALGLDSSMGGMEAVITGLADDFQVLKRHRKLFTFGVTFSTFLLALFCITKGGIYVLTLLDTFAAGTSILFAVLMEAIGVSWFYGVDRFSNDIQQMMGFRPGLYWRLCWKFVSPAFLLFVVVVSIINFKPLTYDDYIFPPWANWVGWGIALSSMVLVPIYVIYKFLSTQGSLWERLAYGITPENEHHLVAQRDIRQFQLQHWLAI

Vasopressin V1A = target: T16, Vasopressin V1A (Homo sapiens, UniProt P37288); experiment: Eurofins SafetyScreen panel; format: binding
T16 construct: Eurofins (contract screening, SafetyScreen panel) PP223

hERG potassium channel = hERG potassium channel (Homo sapiens, UniProt Q12809); experiment: in vitro; conditions: %inh
hERG potassium channel, sequence (Q12809 whole entry): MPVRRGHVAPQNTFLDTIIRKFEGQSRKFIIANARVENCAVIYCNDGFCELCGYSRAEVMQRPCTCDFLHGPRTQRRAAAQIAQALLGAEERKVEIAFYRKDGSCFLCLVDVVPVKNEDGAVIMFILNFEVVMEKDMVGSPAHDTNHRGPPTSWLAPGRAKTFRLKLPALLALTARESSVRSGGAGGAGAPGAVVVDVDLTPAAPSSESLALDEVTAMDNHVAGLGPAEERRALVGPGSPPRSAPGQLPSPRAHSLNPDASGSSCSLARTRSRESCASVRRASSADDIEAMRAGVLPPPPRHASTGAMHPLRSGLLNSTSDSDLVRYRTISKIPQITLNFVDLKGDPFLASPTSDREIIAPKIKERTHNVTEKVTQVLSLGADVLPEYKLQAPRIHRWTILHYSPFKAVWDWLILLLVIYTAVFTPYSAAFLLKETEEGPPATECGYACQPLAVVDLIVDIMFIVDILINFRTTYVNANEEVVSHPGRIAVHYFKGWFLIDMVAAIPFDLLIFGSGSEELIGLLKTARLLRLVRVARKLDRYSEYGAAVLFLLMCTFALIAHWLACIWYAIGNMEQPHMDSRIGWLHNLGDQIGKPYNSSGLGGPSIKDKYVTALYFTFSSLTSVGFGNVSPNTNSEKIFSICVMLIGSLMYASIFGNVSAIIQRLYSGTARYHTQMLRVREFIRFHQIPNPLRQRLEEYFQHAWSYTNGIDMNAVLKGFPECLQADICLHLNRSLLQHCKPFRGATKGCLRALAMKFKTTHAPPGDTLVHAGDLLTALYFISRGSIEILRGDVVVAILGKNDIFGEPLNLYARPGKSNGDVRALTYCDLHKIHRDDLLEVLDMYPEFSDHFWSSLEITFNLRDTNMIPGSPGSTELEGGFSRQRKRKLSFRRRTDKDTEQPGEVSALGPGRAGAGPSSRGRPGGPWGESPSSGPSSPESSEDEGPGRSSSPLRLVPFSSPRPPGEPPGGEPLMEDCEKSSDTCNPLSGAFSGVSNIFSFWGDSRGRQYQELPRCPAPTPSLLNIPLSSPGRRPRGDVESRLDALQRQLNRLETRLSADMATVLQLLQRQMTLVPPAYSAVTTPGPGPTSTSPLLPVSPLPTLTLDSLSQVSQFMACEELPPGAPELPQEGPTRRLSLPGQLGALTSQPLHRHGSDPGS

Potassium Channel [hERG] [6] = target: T17, Potassium Channel [hERG] (Homo sapiens, UniProt Q12809); experiment: biochemical
T17 sequence (Q12809 whole entry): as above

Potassium Channel [hERG] [7] = target: T17, Potassium Channel [hERG]; experiment: Eurofins SafetyScreen panel
CYP2C9 = CYP2C9 (Homo sapiens, UniProt P11712); experiment: Cytochrome P450 inhibition (Eurofins); conditions: at 10 μM; listed as 17, 10 µM
[8] = read-out: %inh, 10 μM, additional batch

SMILES: O=S(=O)(c1cccc(F)c1)n1ccc2c(N3CCNCC3)nc3ccccc3c21 [FPPQ, 1-[(3-Fluorophenyl)sulfonyl]-4-(piperazin-1-yl)-1H-pyrrolo[3,2-c]quinoline dihydrochloride]
- inhibition at 10 µM (ACE): -9%
- inhibition at 10 µM (Adenosine A2A): 1%
- inhibition at 10 µM (Angiotensin AT1): -4%
- inhibition at 0.01 µM ([1]; 10 nM): -3%
- inhibition at 1 µM ([1]; 1 μM): 46%
- inhibition at 10 µM [1]: 83%
- inhibition at 10 µM ([1]; additional batch): 92%
- inhibition at 0.01 µM ([2]; 10 nM): -4%
- inhibition at 0.1 µM ([2]; 0.1 μM): 3%
- inhibition at 1 µM ([2]; 1 μM): 60%
- inhibition at 10 µM [2]: 89%
- inhibition at 10 µM ([2]; additional batch): 78%
- inhibition at 0.01 µM ([3]; 10 nM): -2%
- inhibition at 0.1 µM ([3]; 0.1 μM): 9%
- inhibition at 1 µM ([3]; 1 μM): 48%
- inhibition at 10 µM [3]: 78%
- inhibition at 10 µM ([3]; additional batch): 85%
- inhibition at 10 µM (Chemokine CCR1): -6%
- inhibition at 10 µM (GABAB1A): 13%
- inhibition at 10 µM [4]: 16%
- pIC50 (Histamine H1): 6.34
- pKi (Histamine H1): 6.66
- inhibition at 0.01 µM (Histamine H1; read-out: %inh, 10 nM): 4%
- inhibition at 0.1 µM (Histamine H1; read-out: %inh, 0.1 μM): 19%
- inhibition at 1 µM (Histamine H1; read-out: %inh, 1 μM): 67%
- inhibition at 10 µM (Histamine H1; read-out: %inh, 10 μM): 97%
- inhibition at 10 µM (Histamine H1; [8]): 98%
- inhibition at 10 µM (Muscarinic M4): 8%
- pIC50 (Opiate κ (OP2, KOP)): 5.09
- pKi (Opiate κ (OP2, KOP)): 5.49
- inhibition at 0.1 µM (Opiate κ (OP2, KOP); read-out: %inh, 0.1 μM): 5%
- inhibition at 1 µM (Opiate κ (OP2, KOP); read-out: %inh, 1 μM): 8%
- inhibition at 10 µM (Opiate κ (OP2, KOP); read-out: %inh, 10 μM): 55%
- inhibition at 10 µM (Opiate κ (OP2, KOP); [8]): 64%
- inhibition at 100 µM (Opiate κ (OP2, KOP); read-out: %inh, 100 μM): 99%
- pIC50 (Opiate μ (OP3, MOP)): 5.15
- inhibition at 0.1 µM (Opiate μ (OP3, MOP); read-out: %inh, 0.1 μM): 3%
- inhibition at 10 µM (Opiate μ (OP3, MOP); read-out: %inh, 10 μM): 59%
- inhibition at 10 µM (Opiate μ (OP3, MOP); [8]): 61%
- inhibition at 100 µM (Opiate μ (OP3, MOP); read-out: %inh, 100 μM): 97%
- pIC50 (Serotonin 5-HT1A): 6.07
- pKi (Serotonin 5-HT1A): 6.31
- inhibition at 0.01 µM (Serotonin 5-HT1A; read-out: %inh, 10 nM): -2%
- inhibition at 0.1 µM (Serotonin 5-HT1A; read-out: %inh, 0.1 μM): 16%
- inhibition at 1 µM (Serotonin 5-HT1A; read-out: %inh, 1 μM): 53%
- inhibition at 10 µM (Serotonin 5-HT1A; read-out: %inh, 10 μM): 87%
- inhibition at 10 µM (Serotonin 5-HT1A; [8]): 91%
- inhibition at 10 µM (Serotonin 5-HT2A): 50%
- pIC50 (Serotonin 5-HT5A): 5.25
- inhibition at 0.1 µM (Serotonin 5-HT5A; read-out: %inh, 0.1 μM): 1%
- inhibition at 10 µM (Serotonin 5-HT5A; read-out: %inh, 10 μM): 64%
- inhibition at 10 µM (Serotonin 5-HT5A; [8]): 61%
- inhibition at 100 µM (Serotonin 5-HT5A; read-out: %inh, 100 μM): 98%
- pIC50 (Sigma σ1): 5.08
- pKi (Sigma σ1): 5.46
- inhibition at 0.1 µM (Sigma σ1; read-out: %inh): 7%
- inhibition at 1 µM (Sigma σ1; read-out: %inh): 18%
- inhibition at 10 µM (Sigma σ1; read-out: %inh): 51%
- inhibition at 100 µM (Sigma σ1; read-out: %inh): 89%
- pIC50 [5]: 5.90
- pKi [5]: 5.91
- inhibition at 0.01 µM ([5]; read-out: %inh, 10 nM): 1%
- inhibition at 0.1 µM ([5]; read-out: %inh, 0.1 μM): 8%
- inhibition at 1 µM ([5]; read-out: %inh, 1 μM): 42%
- inhibition at 10 µM ([5]; read-out: %inh, 10 μM): 94%
- inhibition at 10 µM [5, 8]: 96%
- inhibition at 10 µM (Vasopressin V1A): -18%
- inhibition at 0.01 µM (hERG potassium channel; 10 nM): 9%
- inhibition at 0.1 µM (hERG potassium channel; 0.1 μM): 9%
- inhibition at 1 µM (hERG potassium channel; 1 μM): 32%
- inhibition at 10 µM (hERG potassium channel): 107%
- inhibition at 10 µM (hERG potassium channel; additional batch): 101%
- pIC50 (Potassium Channel [hERG] [6]): 5.94
- pKi (Potassium Channel [hERG] [7]): 6.03
- cytochrome P450 inhibition 2C9 (CYP2C9): < 25% inh at 10 uM
